Positions of bridges follow the written chain, without caps; N, C: chain ends. Non-standard residues stand in square brackets, D forms with d. Residues, ends and D or L forms follow the SMILES beside them. Thz = O=C(O)[C@@H]1CSCN1

A short description of experiment [1]: In vivo acute food intake model (BioDAQ) in C57BL/6J male mice. To be noted: single subcutaneous dose 1 mg/kg, cumulative food intake. Here is the method: The MC4R system is central to appetite regulation and agonists are known inhibit food intake. In order to screen compounds in a relevant in vivo model, efficacy was assessed by determining the effect of the compound on reducing food intake acutely in mice.
All animal protocols were approved by an Institutional Animal Care and Use Committee and Ethical Review Committee of Novo Nordisk. Animals were housed according to Novo Nordisk rodent housing standards, and were given ad libitum access to food and water under controlled lighting (12 h:12 h light/dark cycle; lights off 11:00-23:00), temperature (23±2° C.) and relative humidity (50±20%) conditions. For each acute food intake study C57BL/6J male mice (25-30 grams body weight) were acclimated for two weeks to the appropriate light cycle and to single-housing (one mouse per cage) in cages linked to a BioDAQ automated food intake system (Research Diets Inc., New Brunswick, N.J. USA). The animals were also acclimated to new food (Research Diets 12450B, 10% kcal fat) during this time.
The BioDAQ is a computer automated scientific instrument for Biological Data Acquisition of food intake in rodents and measures food intake from each cage every 15 minutes. A total of 32 animals can be accommodated in the system per study, therefore, animals were randomized into 4 groups of n=8 for each study. […] Animals were fasted ˜4 hr prior to dosing. Vehicle (10 mM phosphate; 140 mM sodium chloride) or compound was dosed at a volume of 10 ml per kg subcutaneously approximately 20 minutes prior to the start of the dark cycle (compound chem no. and dosages are indicated in table 2 below). After dosing, food intake was recorded for approximately 24 hours.
The inhibitory effect of compounds on food intake was generally well-correlated with in vitro binding affinity on the human MC4 receptor and with plasma stability of the compound. Most studies were conducted as dose response studies with vehicle and the compound at 3 doses (0.3, 1 and 3 mg/kg). Some studies were done for the purpose of dose-range finding, while others were done to comparatively assess the effect of 3 compounds at the same dose. Maximal effects on food intake occurred within the first 1-5 hours post-dose. The comparative effect of compounds across studies on food intake was assessed by normalizing measurements as % effect on cumulative food intake after a single subcutaneous dose, relative to vehicle. Results are reported in Table 2 as % effect on food intake at 3 hours post dose.

The next experiment deals with T1, human MC4R (Homo sapiens, UniProt P32245).
T1 construct: expressed in transfected cells
T1 sequence (P32245 whole entry): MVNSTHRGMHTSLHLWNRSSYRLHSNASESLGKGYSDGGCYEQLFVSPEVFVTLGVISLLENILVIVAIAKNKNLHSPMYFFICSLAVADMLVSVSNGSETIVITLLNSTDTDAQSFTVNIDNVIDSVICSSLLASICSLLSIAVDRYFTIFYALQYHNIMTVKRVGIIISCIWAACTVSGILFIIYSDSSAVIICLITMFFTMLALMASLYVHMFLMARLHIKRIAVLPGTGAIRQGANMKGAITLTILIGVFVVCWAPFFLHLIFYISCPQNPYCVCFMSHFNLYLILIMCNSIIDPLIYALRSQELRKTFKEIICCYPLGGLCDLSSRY
In words: Functional cAMP assay (CisBio HTRF) in BHK cells expressing human MC4R. It is filed as cell-based. The method in brief:
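Compound working solutions, 10-fold dilutions from 2 μM at twice final strength, in buffer containing 1 mM IBMX, were incubated 30 min at 25 °C with BHK cells stably carrying human MC4R or MC1R. Accumulated cAMP was then detected by competitive HTRF after 1 h at 25 °C and fitted by non-linear regression.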
For orientation: Changes in cAMP serve as a functional read-out for many G protein-coupled receptors.

On to `C[C@@H]1NC(=O)[C@H](CCCCN)NC(=O)[C@@H]2CSSC[C@H](NC(=O)[C@H](Cc3c[nH]c4ccccc34)NC(=O)[C@H](C)NC(=O)[C@@H](CCCCN)NC1=O)C(=O)N1CSC[C@H]1C(=O)N[C@@H](Cc1c[nH]cn1)C(=O)N[C@H](Cc1ccccc1)C(=O)N[C@@H](Cc1c[nH]cn1)C(=O)N[C@@H](Cc1c[nH]c3ccccc13)C(=O)N2` [Chem. 114, c[c[Cys-THAZ-His-D-Phe-His-Trp- Cys]-Lys-Ala-D-Lys-Ala-Trp]] (cyclo(AWC[Thz]H[dF]HWCKA[dK]); disulfide 3-9), for which the “% Effect on food intake at 3 hours post dose, relative to vehicle” value in experiment [1] is given as −64 ± 6%. Moreover, the EC50 (usually the concentration giving half of the maximal effect) at human MC4R (BHK cells expressing human MC4R, '>' = highest dose used with no response, read-out: MC4R cAMP EC50) came to 0.04 nM. The “MC1R/MC4R cAMP EC50 ratio” value at human MC4R (MC1R cAMP EC50 divided by MC4R cAMP EC50) is recorded as 2844.

Values taken from US20200223889A1, “Bicyclic Compounds Capable of Binding to Melanocortin 4 Receptor” (Novo Nordisk A/S, priority 2017, published 2020).
